# From US10774082B2, “Quinazoline compound” (Astellas Pharma Inc., priority 2017, dated 2020)
# Where two headings read alike, the source gives them in different places.
# Tests used:
# [1] = test system: NCI-H1373 cells; assay: Anchorage-independent cell proliferation inhibitory action, NCI-H1373 spheroid three-dimensional culture; assay type: cell-based, Human; details: read-out: IC50 (anchorage-independent cell proliferation inhibition)
# In short: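 KRAS G12C NCI-H1373 cells were grown as spheroids in low-attachment U-bottom wells and treated the next day with compound, six points from 1,000 to 0.3 nM final. After six days at 37°C, viability was read by CellTiter-Glo luminescence. IC50 was fitted by Sigmoid-Emax regression, with DMSO set as 0% and cell-free medium as 100% inhibition.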
# [2] = test system: ERK phosphorylation (Thr 202/Tyr 204) in NCI-H1373 cells; assay: ERK phosphorylation inhibitory action in NCI-H1373 (Cell ELISA); assay type: cell-based, Human; details: read-out: IC50 (ERK phosphorylation inhibition)
# In short: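 KRAS G12C NCI-H1373 cells (2×10^4/well) were treated with compound (six points, 1,000–0.3 nM final) for 2 h. Phospho-ERK Thr202/Tyr204 was measured by in-cell ELISA with an IRDye 800CW secondary antibody. IC50 was fitted by sigmoid-Emax regression against DMSO (0%) and 1 μM trametinib (100%).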
# [3] = Homo sapiens, NCI-H1373, 144 h, NCI-H1373 spheroid, six days, CellTiter Glo
# [4] = Homo sapiens, NCI-H1373, 2 h, NCI-H1373 cells, cultured for 2 hours, 100% = 1 μM Trametinib
# [5] = NCI-H1373 spheroid, six days, CellTiter Glo
# [6] = NCI-H1373 cells, cultured for 2 hours, 100% = 1 μM Trametinib
Compound,"IC50 [1, 3] [nM]","IC50 [2, 4] [nM]",further results
"C=CC(=O)N1CC2(CCN(c3nc(OC4CCN(C5CCOCC5)CC4)nc4c(OCC(F)(F)F)c(-c5c(C)ccc6[nH]ncc56)c(C=C)cc34)CC2)C1 (single isomer, unassigned) [Ex 39]",4.3,3,–
"C=CC(=O)N1CCN(c2nc(OC3CCN(C)CC3)nc3c(F)c(-c4c(C)ccc5[nH]ncc45)c(Cl)cc23)CC1 [Compound C, reference compound]",320,210,–
C=CC(=O)N1CC2(CCN(c3nc(OC4CCN(C)CC4)nc4c(OCC)c(-c5c(C)ccc6[nH]ncc56)c(C5CC5)cc34)CC2)C1 [Ex 2],6.2,4.4,–
C=CC(=O)N1CC2(CCN(c3nc(OC4CCN(C)CC4)nc4c(OCC(F)F)c(-c5c(C)ccc6[nH]ncc56)c(C5CC5)cc34)CC2)C1 [Ex 3],4.7,3.3,–
C=CC(=O)N1CC2(CCN(c3nc(OC[C@@H]4CCCN4C)nc4c(OCC(F)F)c(-c5c(C)ccc6[nH]ncc56)c(C5CC5)cc34)CC2)C1 [Ex 4],3.4,2.9,–
C=CC(=O)N1CC2(CCN(c3nc(OC4CCN(CC)CC4)nc4c(OCC)c(-c5c(C)ccc6[nH]ncc56)c(C=C)cc34)CC2)C1 [Ex 7],11,8.8,–
C=CC(=O)N1CC2(CCN(c3nc(OC4CCN(C)CC4)nc4c(OCC)c(-c5c(C)ccc6[nH]ncc56)c(C=C)cc34)CC2)C1 [Ex 24],6.1,3.7,–
C=CC(=O)N1CC2(CCN(c3nc(OC4CCN(CCOC)CC4)nc4c(OCC(F)(F)F)c(-c5c(C)ccc6[nH]ncc56)c(C5CC5)cc34)CC2)C1 [Ex 25],–,2.5,–
C=CC(=O)N1CC2(CCN(c3nc(OC4CCN(CCOC)CC4)nc4c(OCC(F)(F)F)c(-c5c(C)ccc6[nH]ncc56)c(C=C)cc34)CC2)C1 [Ex 26],–,3.3,–
C=CC(=O)N1CC2(CCN(c3nc(OC4CCN(CCCOC)CC4)nc4c(OCC(F)(F)F)c(-c5c(C)ccc6[nH]ncc56)c(C5CC5)cc34)CC2)C1 [Ex 28],–,3.5,–
C=CC(=O)N1CC2(CCN(c3nc(OC4CCN(C5CCOCC5)CC4)nc4c(OCC(F)(F)F)c(-c5c(C)ccc6[nH]ncc56)c(C=C)cc34)CC2)C1 [Ex 30],5.4,3.1,–
C=CC(=O)N1CC2(CCN(c3nc(OC[C@@H]4CCCN4C)nc4c(OC5CCC5)c(-c5c(C)ccc6[nH]ncc56)c(C=C)cc34)CC2)C1 [Example 15],–,–,"IC50 ([1]; Homo sapiens, NCI-H1373, 144 h): 14 nM; IC50 ([2]; Homo sapiens, NCI-H1373, 2 h): 11 nM"
C=CC(=O)N1CC2(CCN(c3nc(OC[C@@H]4CCCN4C)nc4c(OCC)c(-c5c(C)ccc6[nH]ncc56)c(C=C)cc34)CC2)C1 [Example 16],–,–,"IC50 ([1]; Homo sapiens, NCI-H1373, 144 h): 10 nM; IC50 ([2]; Homo sapiens, NCI-H1373, 2 h): 9.1 nM"
C=CC(=O)N1CC2(CCN(c3nc(OC4CCN(CCOCC)CC4)nc4c(OCC(F)(F)F)c(-c5c(C)ccc6[nH]ncc56)c(C=C)cc34)CC2)C1 [Example 29],10,4.2,–
C=CC(=O)N1CC2(CCN(c3nc(OC4CCN(CCOC)CC4)nc4c(OCC(F)F)c(-c5c(C)ccc6[nH]ncc56)c(C5CC5)cc34)CC2)C1 [Example 32],7.1,5.7,–
C=CC(=O)N1CC2(CCN(c3nc(OC4CCN(C5COC5)CC4)nc4c(OCC(F)(F)F)c(-c5c(C)ccc6[nH]ncc56)c(C=C)cc34)CC2)C1 [Example 33],8.7,4.6,–
C=CC(=O)N1CC2(CCN(c3nc(OC4CCN(C5COC5)CC4)nc4c(OCC)c(-c5c(C)ccc6[nH]ncc56)c(C5CC5)cc34)CC2)C1 [Example 34],7.5,5.8,–
C=CC(=O)N1CC2(CCN(c3nc(OC4CCN(CCOC)CC4)nc4c(OCC(F)(F)F)c(-c5c(C)ccc6[nH]ncc56)c(C5CC5)cc34)CC2)C1 [Example 35],–,–,"IC50 [1, 5]: 2.5 nM; IC50 [2, 6]: 2.5 nM"
C=CC(=O)N1CC2(CCN(c3nc(OC4CCN(CCOCC)CC4)nc4c(OCC(F)(F)F)c(-c5c(C)ccc6[nH]ncc56)c(C=C)cc34)CC2)C1 [Example 37],–,–,"IC50 [1, 5]: 8.8 nM; IC50 [2, 6]: 2.5 nM"
C=CC(=O)N1CC2(CCN(c3nc(OC4CCN(CC(C)(C)O)CC4)nc4c(OCC(F)(F)F)c(-c5c(C)ccc6[nH]ncc56)c(C=C)cc34)CC2)C1 [Example 40],–,–,"IC50 [1, 5]: 5.1 nM; IC50 [2, 6]: 3.1 nM"
C=CC(=O)N1CC2(CCN(c3nc(N4CCN(C)CC4)nc4c(OCC(F)(F)F)c(-c5c(C)ccc6[nH]ncc56)c(C=C)cc34)CC2)C1 [Example 50],16,6.4,–
C=CC(=O)N1CC2(CCN(c3nc(OC4CCN(C)CC4F)nc4c(OCC(F)(F)F)c(-c5c(C)ccc6[nH]ncc56)c(C=C)cc34)CC2)C1 (stereo not drawn) [Example 52],16,6.7,–
C=CC(=O)N1CC2(CCN(c3nc(OC4CCN(Cc5ccccn5)CC4)nc4c(OCC(F)(F)F)c(-c5c(C)ccc6[nH]ncc56)c(C=C)cc34)CC2)C1 [Example 56],21,7.7,–
C=CC(=O)N1CC2(CCN(c3nc(N4CC(N(C)C)C4)nc4c(OCC(F)(F)F)c(-c5c(C)ccc6[nH]ncc56)c(C=C)cc34)CC2)C1 [Example 65],27,9.3,–
